Measurements: patent publication US10717716B2, “1,3,4-oxadiazole derivative compounds as histone deacetylase 6 inhibitor, and the pharmaceutical composition comprising the same” (Chong Kun Dang Pharmaceutical Corp., priority 2015, dated 2020)

What was measured:
human recombinant HDAC6 = biological target: T1, human recombinant HDAC6 (Homo sapiens, UniProt Q9UBN7); test: HDAC6 enzyme activity inhibition assay (HDAC Fluorimetric Drug Discovery Kit); type: biochemical; settings: for HDAC6 selectivity (fold): HDAC6 over HDAC1; for IC50: human recombinant HDAC6, same protocol as HDAC1, read-out: HDAC6
T1 construct: purchased Calbiochem 382180
T1 sequence (Q9UBN7 1-1215): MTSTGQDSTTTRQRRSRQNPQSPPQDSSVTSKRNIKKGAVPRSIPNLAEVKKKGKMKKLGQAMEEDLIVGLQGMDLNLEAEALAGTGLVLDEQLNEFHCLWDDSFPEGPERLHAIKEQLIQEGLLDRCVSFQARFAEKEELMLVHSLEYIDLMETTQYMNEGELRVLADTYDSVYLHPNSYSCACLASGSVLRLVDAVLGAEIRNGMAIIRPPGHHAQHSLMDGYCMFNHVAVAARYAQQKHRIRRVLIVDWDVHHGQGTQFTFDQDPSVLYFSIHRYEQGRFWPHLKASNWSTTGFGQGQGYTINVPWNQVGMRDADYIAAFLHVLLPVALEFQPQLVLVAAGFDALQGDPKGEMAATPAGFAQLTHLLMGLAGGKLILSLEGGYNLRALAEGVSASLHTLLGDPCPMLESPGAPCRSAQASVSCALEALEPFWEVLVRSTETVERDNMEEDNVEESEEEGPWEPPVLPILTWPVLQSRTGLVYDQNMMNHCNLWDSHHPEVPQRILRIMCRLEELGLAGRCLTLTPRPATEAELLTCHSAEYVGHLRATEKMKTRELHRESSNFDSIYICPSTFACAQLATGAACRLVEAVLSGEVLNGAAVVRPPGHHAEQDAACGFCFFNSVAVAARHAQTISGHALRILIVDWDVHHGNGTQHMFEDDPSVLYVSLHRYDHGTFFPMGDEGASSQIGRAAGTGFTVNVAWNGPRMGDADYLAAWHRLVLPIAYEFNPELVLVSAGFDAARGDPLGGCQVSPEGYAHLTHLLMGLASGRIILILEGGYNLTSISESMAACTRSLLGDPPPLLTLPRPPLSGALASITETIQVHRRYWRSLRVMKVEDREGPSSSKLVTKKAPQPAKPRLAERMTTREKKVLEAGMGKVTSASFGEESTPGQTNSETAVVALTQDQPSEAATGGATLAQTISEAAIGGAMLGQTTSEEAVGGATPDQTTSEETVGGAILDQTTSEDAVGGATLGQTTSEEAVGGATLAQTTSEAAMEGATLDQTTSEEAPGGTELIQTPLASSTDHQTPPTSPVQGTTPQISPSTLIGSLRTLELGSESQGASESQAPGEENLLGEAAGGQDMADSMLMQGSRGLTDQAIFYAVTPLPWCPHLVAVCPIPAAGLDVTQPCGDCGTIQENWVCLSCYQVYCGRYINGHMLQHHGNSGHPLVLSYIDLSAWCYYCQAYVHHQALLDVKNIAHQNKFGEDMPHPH
Outline: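 Fluorimetric deacetylase assay: 5-fold serial compound dilutions, 0.3 μg recombinant human enzyme (HDAC1 or HDAC6, same protocol), 10 μM Fluor de Lys-SIRT1 substrate, 60 min at 30 °C. Signal developed 30 min, measured at 360/460 nm; IC50 values derived.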

human recombinant HDAC1 = biological target: T2, human recombinant HDAC1 (Homo sapiens, UniProt Q13547); test: HDAC1 enzyme activity inhibition assay (HDAC Fluorimetric Drug Discovery Kit); type: biochemical; settings: human recombinant HDAC1, Fluor de Lys substrate 10 μM, 30° C. 60 minutes
T2 construct: purchased Enzo Life Science BML-SE456
T2 sequence (Q13547 whole entry): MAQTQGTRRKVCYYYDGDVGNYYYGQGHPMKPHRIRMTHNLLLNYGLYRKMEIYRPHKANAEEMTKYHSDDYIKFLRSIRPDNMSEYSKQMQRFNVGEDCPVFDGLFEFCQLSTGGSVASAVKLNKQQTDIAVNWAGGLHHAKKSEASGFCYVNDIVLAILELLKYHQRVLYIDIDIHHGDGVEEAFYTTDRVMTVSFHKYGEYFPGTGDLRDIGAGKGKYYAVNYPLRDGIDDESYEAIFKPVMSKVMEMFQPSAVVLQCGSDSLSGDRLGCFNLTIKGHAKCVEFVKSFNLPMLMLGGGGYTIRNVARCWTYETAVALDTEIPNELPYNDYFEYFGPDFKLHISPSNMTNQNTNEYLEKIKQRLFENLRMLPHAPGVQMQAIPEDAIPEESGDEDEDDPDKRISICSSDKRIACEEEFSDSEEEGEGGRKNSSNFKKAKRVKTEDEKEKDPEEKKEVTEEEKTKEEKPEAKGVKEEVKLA
Experimental: In order to examine the HDAC6 selectivity of the compounds of formula I of the present invention by HDAC1 and HDAC6 enzymatic activity inhibition assays, an experiment was performed using a conventional substance as a control.
HDAC enzyme activity was measured using a HDAC Fluorimetric Drug Discovery Kit (BML-AK511, 516, Enzo Life Science). For the HDAC1 enzyme activity test, human recombinant HDAC1 (BML-SE456) was used as an enzyme source, and Fluor de Lys®-“SIRT1 (BNL-KI177) was used as a substrate. A 5-fold dilution of the compound was seeded into a 96-well plate, and then 0.3 μg of the enzyme and 10 μM of the substrate were added to each well of the plate and allowed to react at 30° C. for 60 minutes. Then, Fluor de Lys®-Developer II (BML-KI176) was added thereto and allowed to react for 30 minutes, after which the fluorescence value (Ex 360, Em 460) was measured using a multi-plate reader (Flexstation 3, Molecular Device). The HDAC6 enzyme was tested using human recombinant HDAC6 (382180) (Calbiochem) according to the same protocol as the HDAC1 enzyme activity test method. Based on the resulting values, each IC5, value was calculated using GraphPad Prism4.0 program.

Row | Structure (SMILES) | HDAC6 selectivity (fold) (human recombinant HDAC6) | IC50 (human recombinant HDAC6) | IC50 (human recombinant HDAC1)
1 | CCN1CCN(C(=O)N(Cc2ccc(-c3nnc(C(F)F)o3)cc2F)c2ccc(F)cc2Cl)CC1 [Compound 21650, N-(2-chloro-4-fluorophenyl)-N-(4-(5-(difluoromethyl)-1,3,4-oxadiazol-2-yl)-2-fluorobenzyl)-4-ethylpiperazine-1-carboxamide] | 468 fold | 0.077 µM | 36.1 µM
2 | CN(C)[C@H]1CCN(C(=O)N(Cc2ccc(-c3nnc(C(F)F)o3)cc2F)c2ccc(F)cc2Cl)C1 [Compound 21651, (S)—N-(2-chloro-4-fluorophenyl)-N-(4-(5-(difluoromethyl)-1,3,4-oxadiazol-2-yl)-2-fluorobenzyl)-3-(dimethylamino)pyrrolidine-1-carboxamide] | 806 fold | 0.061 µM | 49.2 µM
3 | CN(C)[C@@H]1CCN(C(=O)N(Cc2ccc(-c3nnc(C(F)F)o3)cc2F)c2ccc(F)cc2Cl)C1 [Compound 21652, (R)—N-(2-chloro-4-fluorophenyl)-N-(4-(5-(difluoromethyl)-1,3,4-oxadiazol-2-yl)-2-fluorobenzyl)-3-(dimethylamino)pyrrolidine-1-carboxamide] | 787 fold | 0.046 µM | 36.5 µM
4 | CN1CCN(C(=O)N(Cc2ccc(-c3nnc(C(F)F)o3)cc2F)c2ccc3cnn(C)c3c2)CC1 [Compound 21654, N-(4-(5-(difluoromethyl)-1,3,4-oxadiazol-2-yl)-2-fluorobenzyl)-4-methyl-N-(1-methyl-1H-indazol-6-yl)piperazine-1-carboxamide] | 1518 fold | 0.012 µM | 18.8 µM
5 | CCN1CCN(C(=O)N(Cc2ccc(-c3nnc(C(F)F)o3)cc2F)c2ccc(F)c(Br)c2)CC1 [Compound 21656, N-(3-bromo-4-fluorophenyl)-N-(4-(5-(difluoromethyl)-1,3,4-oxadiazol-2-yl)-2-fluorobenzyl)-4-ethylpiperazine-1-carboxamide] | 1122 fold | 0.033 µM | 36.5 µM
6 | CCN1CCN(C(=O)N(Cc2ccc(-c3nnc(C(F)(F)F)o3)cc2F)c2ccc(F)c(Br)c2)CC1 [Compound 21658, N-(3-bromo-4-fluorophenyl)-4-ethyl-N-(2-fluoro-4-(5-(trifluoromethyl)-1,3,4-oxadiazol-2-yl)benzyl)piperazine-1-carboxamide] | 59 fold | 0.144 µM | 8.44 µM
7 | CCN1CCN(C(=O)N(Cc2ccc(-c3nnc(C(F)(F)F)o3)cc2F)c2cccc(F)c2F)CC1 [Compound 21659, N-(2,3-difluorophenyl)-4-ethyl-N-(2-fluoro-4-(5-(trifluoromethyl)-1,3,4-oxadiazol-2-yl)benzyl)piperazine-1-carboxamide] | 153 fold | 0.102 µM | 15.7 µM
8 | CCN1CCN(C(=O)N(Cc2ccc(-c3nnc(C(F)(F)F)o3)cc2F)c2ccc(C)c(Cl)c2)CC1 [Compound 21660, N-(3-chloro-4-methylphenyl)-4-ethyl-N-(2-fluoro-4-(5-(trifluoromethyl)-1,3,4-oxadiazol-2-yl)benzyl)piperazine-1-carboxamide] | 80 fold | 0.309 µM | 24.8 µM
9 | O=C(N1CC[C@@H](O)C1)N(Cc1ccc(-c2nnc(C(F)(F)F)o2)cc1F)c1ccc(F)c(Cl)c1 [Compound 21664, (R)—N-(3-chloro-4-fluorophenyl)-N-(2-fluoro-4-(5-(trifluoromethyl)-1,3,4-oxadiazol-2-yl)benzyl)-3-hydroxypyrrolidine-1-carboxamide] | 114 fold | 0.151 µM | 17.1 µM
10 | O=C(N1CC[C@H](F)C1)N(Cc1ccc(-c2nnc(C(F)F)o2)cc1F)c1ccc(F)c(Cl)c1 [Compound 21665, (S)—N-(3-chloro-4-fluorophenyl)-N-(4-(5-(difluoromethyl)-1,3,4-oxadiazol-2-yl)-2-fluorobenzyl)-3-fluoropyrrolidine-1-carboxamide] | 917 fold | 0.021 µM | 19.1 µM
11 | O=C(N1CC[C@H](F)C1)N(Cc1ccc(-c2nnc(C(F)(F)F)o2)cc1F)c1ccc(F)c(Cl)c1 [Compound 21666, (S)—N-(3-chloro-4-fluorophenyl)-3-fluoro-N-(2-fluoro-4-(5-(trifluoromethyl)-1,3,4-oxadiazol-2-yl)benzyl)pyrrolidine-1-carboxamide] | 55 fold | 0.374 µM | 20.5 µM
12 | O=C(N1CCC(F)(F)C1)N(Cc1ccc(-c2nnc(C(F)F)o2)cc1F)c1ccc(F)c(Cl)c1 [Compound 21667, N-(3-chloro-4-fluorophenyl)-N-(4-(5-(difluoromethyl)-1,3,4-oxadiazol-2-yl)-2-fluorobenzyl)-3,3-difluoropyrrolidine-1-carboxamide] | 485 fold | 0.041 µM | 20.1 µM
13 | O=C(N1CCC(F)(F)C1)N(Cc1ccc(-c2nnc(C(F)(F)F)o2)cc1F)c1ccc(F)c(Cl)c1 [Compound 21668, N-(3-chloro-4-fluorophenyl)-3,3-difluoro-N-(2-fluoro-4-(5-(trifluoromethyl)-1,3,4-oxadiazol-2-yl)benzyl)pyrrolidine-1-carboxamide] | 41 fold | 0.253 µM | 10.4 µM
14 | O=C(N1CCN(CCO)CC1)N(Cc1ccc(-c2nnc(C(F)(F)F)o2)cc1F)c1ccc(F)c(Cl)c1 [Compound 21669, N-(3-chloro-4-fluorophenyl)-N-(2-fluoro-4-(5-(trifluoromethyl)-1,3,4-oxadiazol-2-yl)benzyl)-4-(2-hydroxyethyl)piperazine-1-carboxamide] | 46 fold | 0.164 µM | 7.47 µM
15 | O=C(N1CCN(CCO)CC1)N(Cc1ccc(-c2nnc(C(F)F)o2)cc1F)c1ccc(F)c(Cl)c1 [Compound 21679, N-(3-chloro-4-fluorophenyl)-N-(4-(5-(difluoromethyl)-1,3,4-oxadiazol-2-yl)-2-fluorobenzyl)-4-(2-hydroxyethyl)piperazine-1-carboxamide] | 675 fold | 0.034 µM | 23.2 µM
16 | CN1CCN(C(=O)N(Cc2ccc(-c3nnc(C(F)F)o3)cc2F)c2cccc3c2cnn3C)CC1 [Compound 21709, N-(4-(5-(difluoromethyl)-1,3,4-oxadiazol-2-yl)-2-fluorobenzyl)-4-methyl-N-(1-methyl-1H-indazol-4-yl)piperazine-1-carboxamide] | 2255 fold | 0.026 µM | 58.5 µM
17 | Cn1ncc2c(N(Cc3ccc(-c4nnc(C(F)F)o4)cc3F)C(=O)N3CCS(=O)(=O)CC3)cccc21 [Compound 21710, N-(4-(5-(difluoromethyl)-1,3,4-oxadiazol-2-yl)-2-fluorobenzyl)-N-(1-methyl-1H-indazol-4-yl)thiomorpholine-4-carboxamide 1,1-dioxide] | 2651 fold | 0.026 µM | 67.7 µM
